Results on two compounds are retold here after PMC9810272 (Nature, 2022).

In test [1] the target is T1, yeast Tango2p (Saccharomyces cerevisiae, UniProt P53275).
T1 sequence (P53275 1-312): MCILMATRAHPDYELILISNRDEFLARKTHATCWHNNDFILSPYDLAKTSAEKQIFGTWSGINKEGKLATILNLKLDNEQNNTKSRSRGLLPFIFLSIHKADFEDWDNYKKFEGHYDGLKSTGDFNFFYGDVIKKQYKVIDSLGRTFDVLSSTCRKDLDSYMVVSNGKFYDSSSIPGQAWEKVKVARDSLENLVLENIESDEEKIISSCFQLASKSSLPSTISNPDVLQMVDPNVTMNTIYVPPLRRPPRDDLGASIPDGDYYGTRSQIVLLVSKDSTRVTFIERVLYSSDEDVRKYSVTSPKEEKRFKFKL
Kind of test: UV-vis difference spectra titration. It is filed as binding.

Test [2] has as its target T1, yeast Tango2p. The experiment in a line: UV-vis difference spectra titration. Format: binding. This is another data set of the same source.

The term Kd denotes the free concentration of one partner at which half of the binding sites on the other are occupied at equilibrium, for simple one-to-one binding. Read a low Kd as tighter binding.

Like-named read-outs stand apart in the source and are kept apart here.

`C=CC1=C(C)C2=Cc3c(C=C)c(C)c4[n]3[Fe][n]3c(c(C)c(CCC(=O)O)c3=CC3=NC(=C4)C(C)=C3CCC(=O)O)=CC1=N2` [ferric haem] displayed an equilibrium dissociation constant (Kd) in test [1] of 38.7 µM.
In test [2], `C=CC1=C(C)C2=Cc3c(C=C)c(C)c4[n]3[Fe][n]3c(c(C)c(CCC(=O)O)c3=CC3=NC(=C4)C(C)=C3CCC(=O)O)=CC1=N2` [ferrous haem] returned a Kd of 15.4 µM.
